Measured values from patent US5679700A, “Substituted phosphinic acid-containing peptidyl derivatives as antidegenerative agents” (Merck & Co., Inc., priority 1995, dated 1997).

Legend:
[1] = target: rabbit bone proteoglycanase; conditions: cited from earlier work
[2] = target: human rheumatoid synovial collagenase; conditions: cited from earlier work
[3] = target: Human Fibroblast STROMELYSIN (Homo sapiens, UniProt P08254); experiment: biochemical; conditions: SE in parentheses
GELATINASE = target: T1, GELATINASE (Homo sapiens, UniProt P08253); experiment: inhibition of cleavage of fluorogenic peptide DNP-Pro-Leu-Gly-Leu-Trp-Ala-(D)-Arg-NH2 by gelatinase; type: biochemical; conditions: Human Fibroblast; SE in parentheses
T1 sequence (P08253 110-660): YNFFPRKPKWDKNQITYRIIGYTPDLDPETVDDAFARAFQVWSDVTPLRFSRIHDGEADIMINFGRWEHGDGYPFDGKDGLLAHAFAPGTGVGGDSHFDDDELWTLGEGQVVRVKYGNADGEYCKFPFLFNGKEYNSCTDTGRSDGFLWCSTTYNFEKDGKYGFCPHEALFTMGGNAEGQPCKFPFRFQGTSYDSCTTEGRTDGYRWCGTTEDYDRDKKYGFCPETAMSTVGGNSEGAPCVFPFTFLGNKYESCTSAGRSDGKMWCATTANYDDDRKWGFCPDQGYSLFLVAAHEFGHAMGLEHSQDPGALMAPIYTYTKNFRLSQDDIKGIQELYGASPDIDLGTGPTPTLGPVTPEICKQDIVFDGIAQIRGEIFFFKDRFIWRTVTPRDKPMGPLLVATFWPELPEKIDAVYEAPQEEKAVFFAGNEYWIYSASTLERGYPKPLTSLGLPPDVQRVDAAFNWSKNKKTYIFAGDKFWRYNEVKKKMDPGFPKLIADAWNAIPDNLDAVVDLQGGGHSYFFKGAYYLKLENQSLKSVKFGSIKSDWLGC

COLLAGENASE = target: T2, COLLAGENASE (Homo sapiens, UniProt P03956); experiment: inhibition of cleavage of fluorogenic peptide DNP-Pro-Leu-Gly-Leu-Trp-Ala-(D)-Arg-NH2 by collagenase; type: biochemical; conditions: Human Fibroblast; SE in parentheses where printed
T2 sequence (P03956 100-469): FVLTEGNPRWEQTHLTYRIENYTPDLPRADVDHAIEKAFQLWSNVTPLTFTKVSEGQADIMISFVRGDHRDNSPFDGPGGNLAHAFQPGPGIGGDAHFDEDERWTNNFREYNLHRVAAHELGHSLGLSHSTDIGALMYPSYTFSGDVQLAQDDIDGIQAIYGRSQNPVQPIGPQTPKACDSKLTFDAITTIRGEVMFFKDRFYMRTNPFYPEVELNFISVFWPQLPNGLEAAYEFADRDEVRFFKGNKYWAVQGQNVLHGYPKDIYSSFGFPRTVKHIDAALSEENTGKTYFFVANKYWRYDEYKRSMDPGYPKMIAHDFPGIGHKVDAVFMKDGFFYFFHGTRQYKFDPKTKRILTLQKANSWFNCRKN

Chain of Human Fibroblast STROMELYSIN (P08254 100-477): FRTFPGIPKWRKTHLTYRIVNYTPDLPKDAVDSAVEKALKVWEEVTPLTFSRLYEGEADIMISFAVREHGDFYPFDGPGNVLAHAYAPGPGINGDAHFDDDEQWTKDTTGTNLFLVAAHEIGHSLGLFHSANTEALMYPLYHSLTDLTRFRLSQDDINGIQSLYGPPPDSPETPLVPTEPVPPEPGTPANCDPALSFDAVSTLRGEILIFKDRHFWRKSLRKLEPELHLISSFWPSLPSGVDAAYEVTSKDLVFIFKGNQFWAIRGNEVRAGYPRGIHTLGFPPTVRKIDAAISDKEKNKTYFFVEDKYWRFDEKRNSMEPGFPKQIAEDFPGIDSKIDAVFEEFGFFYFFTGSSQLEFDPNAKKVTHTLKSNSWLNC

Compound	IC50 [1]	IC50 [2]	Ki [3]	Ki (GELATINASE)	Ki (COLLAGENASE)
CNC(=O)[C@H](Cc1ccc(OC)cc1)NC(=O)[C@H](CC(C)C)NC(CCNC(=O)OCc1ccccc1)C(=O)O (stereo partly drawn) [N-[3-(benzyloxycarbonyl)amino-1-carboxy-n-propyl]-L-leucyl-O-methyl-L-tyrosine, N-methylamide]	500 nM	800 nM	–	–	–
CC(C)C[C@H](NC(=O)C(CCc1ccccc1)CP(=O)(O)CCCCNC(=O)NC(C)C)C(=O)Nc1ccccc1 (some centres unmarked) [(CH2)4 NCHCONH-i-C3 H7]	–	–	0.022 µM	0.0056 µM	–
CC(C)C[C@H](NC(=O)C(CCc1ccccc1)CP(=O)(O)CCCCN1C(=O)c2ccccc2C1=O)C(=O)Nc1ccccc1 (stereo partly drawn) [(CH2)4 NPhth, (2-(((4-(1,3-Dihydro-1,3-dioxo-2H-isoindol-2-yl)butyl)hydroxyphosphinyl)methyl)-4-phenylbutanoyl)-L-leucine N-phenylamide]	–	–	–	0.026 µM	1000 nM
CC(=O)N1CCC[C@H]1C(=O)N[C@@H](C)C(=O)N[C@@H](C)P(=O)(O)CC(CCc1ccccc1)C(=O)N[C@@H](CC(C)C)C(=O)Nc1ccccc1 (stereo partly drawn) [(R)CH(CH3)NHAlaProAc, [[Hydroxy[1(R)-[N-(N-acetyl-L-prolyl-L-alanyl)-amino]-ethyl]-phosphinyl]-methyl]-4-phenylbutanoyl-L-leucyl N-phenylamide]	–	–	0.0061 µM	0.0026 µM	2900 nM
CC(C)COC(=O)NCCCCP(=O)(O)CC(CCc1ccccc1)C(=O)N[C@@H](CC(C)C)C(=O)Nc1ccccc1 (some centres unmarked) [(CH2)4 NCO2 -i-C4 H4]	–	–	0.019 µM	0.034 µM	–
